This test relates to PN (pkd1-null) cells. Nature of the test: In vitro cystogenesis (3D Matrigel culture, cyst size by cross-sectional area). It counts as cell-based, mouse. As for the experimental part: Cells were treated with DMSO (control), VX-809, or C18 (10 μM) plus or minus forskolin on Days 0, 2, 4, 6, 8, 10, 12, 14. […] Cells were treated with DMSO (control), C18 or VX-809 (10 μM) from 9-16 (7) days. All pictures were taken on Day 16. Columns represent means±SEM (n=6). The average cyst size from the control group was considered 100%, and the sizes of the rest of the cysts were compared with this average. ****P<0.0001. Cyst size was estimated from the cross-sectional area;
VX-809 Reduces Cyst Growth in Vitro Experiments were conducted using a model ADPKD cell line (PH=pkd1+/− heterozygote control; PN=pkd−/− knockout), clonally isolated from single parental clones obtained from a pkdf1/− mouse that was manufactured in an ImmortoMouse containing the H-2Kb-tsA58 gene. The null cells (PN) stably express the Cre recombinase. All the cells proximal tubule origin. To determine how VX-809 reduces cyst growth, cysts were grown in the presence of forskolin (FIG. 2). […] Taken together with the animal data provided in FIG. 1, these in vitro results clearly indicate that CFTR correctors are effective in reducing cyst growth.
In vitro cytogenesis. To induce differentiation, cells were kept at 37° C. for at least 6 days without gamma-interferon. After one week, the cells were used for 3D culture or other experiments. Growth factor-reduced Matrigel #354230 (Corning) was used, and cell dilutions were prepared so that there were approximately 6,000 cells in 25 μl of medium; 25 μl of cell preparation was mixed with 50 μl of Matrigel. Pictures were taken with a Zeiss Axio microscope. Cystic areas were analyzed with ImageJ (provided by the NIH).

Data on one compound can be found in patent US20220133702A1, “CYSTIC FIBROSIS TRANSMEMBRANE CONDUCTANCE REGULATOR MODULATORS FOR TREATING AUTOSOMAL DOMINANT POLYCYSTIC KIDNEY DISEASE” (The Johns Hopkins University, priority 2020, published 2022).

“Also recorded” adds a separate entry of the source.

Take `Cc1ccc(NC(=O)C2(c3ccc4c(c3)OC(F)(F)O4)CC2)nc1-c1cccc(C(=O)O)c1` [VX-809, lumacaftor]: for the setting “10 μM from Days 9-16, in the presence of forskolin”, the “size of established cysts” value is “reduces the size of established cysts”. Moreover, for the setting “10 μM on Days 0, 2, 4, 6, 8, 10, 12, 14, plus or minus forskolin”, the cyst growth entry was “reduce cyst growth equally well; also recorded: inhibits cyst growth”. Also, the cyst size entry (every other day or Days 9-16, in the presence of forskolin) was “dramatically reducing cyst size”.
